Earlier results on two compounds are cited in patent US20060148833A1, “Use of chymase inhibitors for the prevention and/or treatment of arterio-venous graft failure” (priority 2002, published 2006).

One data set deals with dog carotid artery. As to conditions: dog carotid artery balloon injury model.
The subject of the next data set is vein graft. The conditions noted are these: dog model of vein graft injury.
The test system of data set [1] is balloon-injured dog coronary arteries. The conditions noted are these: by suppression of vascular chymase levels.
Data set [2] deals with restenosis following PTCA. As to conditions: oral administration over three months, clinical trials.

Take `O=CNc1cnc(-c2ccccc2)n(CC(=O)NC(Cc2ccccc2)C(=O)C(=O)CCCOc2ccccn2)c1=O` (stereo not shown) [NK3201, 2-(5-formylamino-6-oxo-3-phenyl-1,6,-dihydropyrmidine-1-yl)-N-{2,3-dioxo-6-(2-pyridyloxy)-1-phenylmethyl}hexyl acetamide]: the intimal hyperplasia entry in the data set with dog carotid artery is “inhibit intimal hyperplasia”. Further, the “vascular proliferation and subsequent neointima formation” value in the data set on vein graft was “inhibit vascular proliferation and subsequent neointima formation”.
Take `COc1ccc(C=CC(=O)Nc2ccccc2C(=O)O)cc1OC` [Tranilast, N-(3,4-dimethoxycinnamoyl) anthranilic acid]: the neointima formation entry in data set [1] was “suppresses neointima formation”. Besides, in data set [2], the “rate of restenosis following PTCA” value is on record as “markedly reduce the rate of restenosis”.
